From ChEMBL document CHEMBL5303304, “EUbOPEN Chemogenomics Library - IncuCyte” (2023)

Legend:
Assay type in all cases: toxicity, cell-based
U2OS = experiment: Incucyte cell viability with U2OS; details: human, 10 µM, compound concentration 10 uM
HEK-293T = experiment: Incucyte cell viability with HEK293T; details: human, 10 µM, compound concentration 10 uM
Fibroblast = experiment: Incucyte cell viability with human fibroblast; details: 10 µM, compound concentration 10 uM
Note: unitless GR value; below 1 slowed growth and below 0 cell loss.

SMILES | Growth Rate (U2OS; 0 h, replicate number 1) | Growth Rate (U2OS; 0 h, replicate number 2) | Growth Rate (U2OS; 6 h, replicate number 1) | Growth Rate (U2OS; 12 h, replicate number 1) | Growth Rate (U2OS; 18 h, replicate number 1) | Growth Rate (U2OS; 24 h, replicate number 1) | Growth Rate (HEK-293T; 0 h, replicate number 1) | Growth Rate (HEK-293T; 24 h, replicate number 2) | Growth Rate (Fibroblast; 6 h, replicate number 2) | Growth Rate (Fibroblast; 12 h, replicate number 1) | Growth Rate (Fibroblast; 12 h, replicate number 2) | Growth Rate (Fibroblast; 18 h, replicate number 1) | Growth Rate (Fibroblast; 18 h, replicate number 2) | Growth Rate (Fibroblast; 24 h, replicate number 2) | Growth Rate (HEK-293T; 0 h, replicate number 2) | Growth Rate (HEK-293T; 6 h, replicate number 2) | Growth Rate (HEK-293T; 12 h, replicate number 2) | Growth Rate (HEK-293T; 18 h, replicate number 2) | Growth Rate (Fibroblast; 0 h, replicate number 2) | Growth Rate (Fibroblast; 24 h, replicate number 1) | further results
O=C(O)c1cc(-c2ccccc2)ccc1O | -0.47 | -0.88 | 0.63 | 0.69 | 0.88 | 0.87 | -0.37 | 0.94 | -0.01 | 0.95 | 0.44 | 0.96 | 0.67 | 0.79 | – | – | – | – | – | – | –
CC(C=CC1=C(C)CCCC1(C)C)=CC=CC(C)=CC(=O)O | 0.58 | 0.8 | 0.77 | 0.3 | 0.67 | 0.87 | 0.11 | 0.58 | 0.99 | – | 0.99 | – | – | – | -0.77 | 0.82 | 0.99 | 0.73 | 0.82 | – | Growth Rate (U2OS; 6 h, replicate number 2): 0.93; Growth Rate (U2OS; 24 h, replicate number 2): 0.99; Growth Rate (HEK-293T; 18 h, replicate number 1): 0.94; Growth Rate (HEK-293T; 24 h, replicate number 1): 0.95
CCOC(=O)Nc1ccc2c(c1)N(C(=O)CN(CC)CC)c1ccccc1CC2 | 0.1 | – | 0.94 | 0.75 | – | 0.89 | 0.65 | 0.92 | 0.43 | 0.64 | 0.75 | 0.61 | 0.53 | 0.69 | – | 0.81 | 0.9 | 0.97 | 0.9 | 0.76 | Growth Rate (Fibroblast; 6 h, replicate number 1): 0.29
COc1cc(O)c(C(CC(=O)N2C[C@H](C)C[C@H](C)C2)c2ccc3c(c2)OCO3)c(OC)c1 (some centres undefined) | 0.96 | 0.9 | – | – | – | – | 0.81 | – | 1 | 0.5 | – | 0.1 | 0.88 | – | -0.14 | – | – | – | 0.14 | 0.74 | Growth Rate (Fibroblast; 6 h, replicate number 1): -0.32
CC(=O)Nc1nc(C)c(S(=O)(=O)Nc2ccc(C(O)(C(F)(F)F)C(F)(F)F)cc2)s1 | -0.47 | – | 0.76 | 0.61 | 0.74 | 0.79 | 0.65 | 0.78 | 0.51 | 0.45 | 0.84 | 1 | 0.9 | – | – | – | 0.89 | 0.85 | 0.65 | – | Growth Rate (HEK-293T; 6 h, replicate number 1): 0.85; Growth Rate (HEK-293T; 12 h, replicate number 1): 0.86
CCO[C@H](COc1ccc(C(F)(F)F)cc1)CSc1ccc(OCC(=O)[O-])c(C)c1.[Na+] | – | 0.56 | – | 0.94 | 0.96 | – | -0.25 | 0.68 | – | 0.7 | 0.87 | 0.93 | 0.97 | – | -0.95 | 0.55 | 0.82 | 0.72 | 0.62 | 0.93 | Growth Rate (U2OS; 6 h, replicate number 2): 0.78; Growth Rate (U2OS; 12 h, replicate number 2): 0.8; Growth Rate (U2OS; 18 h, replicate number 2): 0.92; Growth Rate (U2OS; 24 h, replicate number 2): 0.78; Growth Rate (Fibroblast; 6 h, replicate number 1): 0.27
O=C(NCCS(=O)(=O)c1ccc(C(F)(F)F)cn1)c1ccc(Cl)cc1 | – | – | – | 0.98 | 0.96 | 0.93 | -0.16 | 0.79 | – | 0.61 | 0.53 | 0.55 | 0.99 | 0.73 | – | 0.83 | 0.73 | 0.77 | -0.73 | 0.9 | –
